The record followed here is PMC3319004 (Science Translational Medicine, 2011).

Experiment [1] has as its system SH-SY5Y (F1174L) xenografts.
Another experiment relates to NBSD (F1174L) xenografts. The experiment is described as follows: In vivo tumor growth inhibition, NBSD xenografts. Further details: species or system CB17 scid mice.
Experiment [2] has as its system NB1643 (R1275Q) xenografts. The experiment is described as follows: In vivo tumor growth inhibition, NB1643 xenografts. Further details: species or system CB17 scid mice.
Another experiment deals with F1174L ALK-TKD (Homo sapiens, UniProt Q9UM73, F1174L).
A further experiment concerns R1275Q xenografts. The experiment can be described thus: In vivo activity of GSK1838705A in xenografts.
The mark [3] stands for this setting: 100mg/kg/day oral gavage for 4 weeks.

Take `C[C@@H](Oc1cc(-c2cnn(C3CCNCC3)c2)cnc1N)c1c(Cl)ccc(F)c1Cl` [crizotinib]: in experiment [1] (setting [3]), the tumor regression result is listed as “No tumor regression was observed”. Besides, in experiment [1] (100mg/kg/day, average, p < 0.0001), the “extension of time taken to reach the study endpoint (tumor volume ≥ 1.5 cm^3)” value was found to be 7.7 days. The tumor volume result in the experiment on NBSD (F1174L) xenografts (100mg/kg/day oral gavage for 4 weeks, p = 0.29) is on record as “failed to reduce tumor volume”. The “extension of time to reach the study endpoint” value in the experiment on NBSD (F1174L) xenografts (100mg/kg/day, mean, p = 0.04) was 3.7 days. The tumor response entry in experiment [2] (setting [3]) is “tumor regression within three weeks”. In experiment [2] (100mg/kg/day oral gavage, p < 0.0001), the “tumor response over the fourth week of dosing” value is on record as “complete regression was sustained”.

Turning to `CN[C@@H]1C[C@H]2O[C@@](C)([C@@H]1OC)n1c3ccccc3c3c4c(c5c6ccccc6n2c5c31)C(=O)NC4` [staurosporine], on F1174L ALK-TKD, the “in vitro inhibition of ALK-TKD, F1174L compared with R1275Q-mutated ALK-TKD” value is “impaired by the F1174L mutation”.

Regarding `CNC(=O)c1c(F)cccc1Nc1nc(Nc2cc3c(cc2OC)CCN3C(=O)CN(C)C)nc2[nH]ccc12` [GSK1838705A], the “in vivo activity in xenografts” value with R1275Q xenografts was “only showed significant in vivo activity against R1275Q xenografts”.
